Test results taken from patent US20240252499A1, “Treatment of uremic pruritus” (CymaBay Therapeutics, Inc., priority 2023, published 2024).
Read-outs that look alike come from different tables or passages of the source.

How the values were obtained:
[1] = test system: IL-31; conditions: NASH patients; cited from earlier work
[2] = test system: IL-31; conditions: humanized liver murine model; cited from earlier work
[3] = 12-month trial, PBC patients, cited from earlier work
[4] = test system: human IL-31; test: Serum human IL-31 in PXB mice (humanized liver) after 19 days of dosing; type: in vivo, PXB mouse; conditions: gavage once/day for 19 days, 2 h after last dose; day 0 0.13 pg/mL
From the text: The PXB mouse (PhoenixBio Co., Ltd., Higashi-Hiroshima, Japan) is a chimeric mouse with a humanized liver, produced by transplanting human hepatocytes into the albumin enhancer/promoter-urokinase-type plasminogen activator complementary DNA transgenic/SCID mouse. The mouse has its liver repopulated by human hepatocytes at a ratio of more than 70%, typically 85-90%, as assessed by measuring the ratio of human albumin to mouse albumin in the blood. The transplanted human hepatocytes express a variety of human messenger RNA (mRNA) and proteins, in a similar manner to those of the normal human liver. […] The study was conducted at PhoenixBio. Male PXB mice aged about 25 weeks, kept in single animal cages and fed CRF1 mouse chow supplemented with AS primate chow for vitamin C supplementation (both from Oriental Yeast Co., Ltd., Tokyo, Japan), were randomized into groups (10/group) based on mean values for body weight and blood human albumin concentration. […] Two hours after the last dose, each mouse was anesthetized with isoflurane, at least 400 μL blood was collected by cardiac puncture, and the mouse sacrificed by exsanguination. The blood samples were left to coagulate at room temperature for at least 5 minutes, then centrifuged at 13200×g for 3 minutes at 4 °C to obtain serum, which was analyzed for human IL-31.

[5] = biological target: T1, peroxisome proliferator-activated receptor-α (Homo sapiens, UniProt Q07869); test: Specificity of seladelpar for PPARδ compared with PPARα; type: biochemical; conditions: PPARδ vs PPARα
T1 sequence (Q07869 1-468): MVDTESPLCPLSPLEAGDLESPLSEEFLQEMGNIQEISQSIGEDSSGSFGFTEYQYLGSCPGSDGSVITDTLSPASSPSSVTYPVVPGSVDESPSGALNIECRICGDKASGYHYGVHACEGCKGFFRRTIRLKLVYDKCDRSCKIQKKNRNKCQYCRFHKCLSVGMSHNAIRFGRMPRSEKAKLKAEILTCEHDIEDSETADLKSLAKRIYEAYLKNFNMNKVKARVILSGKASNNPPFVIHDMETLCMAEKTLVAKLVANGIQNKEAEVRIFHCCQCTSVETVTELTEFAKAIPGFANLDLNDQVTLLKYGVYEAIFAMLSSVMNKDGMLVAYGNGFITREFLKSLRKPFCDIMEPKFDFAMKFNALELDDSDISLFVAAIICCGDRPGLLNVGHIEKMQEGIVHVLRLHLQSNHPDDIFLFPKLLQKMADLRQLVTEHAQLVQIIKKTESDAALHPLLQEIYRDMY
From the text: It is specific (>600-fold and >2500-fold compared with peroxisome proliferator-activated receptor-α and peroxisome proliferator-activated receptor-γ receptors). PPARδ activation stimulates fatty acid oxidation and utilization, improves plasma lipid and lipoprotein metabolism, glucose utilization, and mitochondrial respiration, and preserves stem cell homeostasis.

[6] = Example 4: oral seladelpar in uremic pruritus; type: in vivo, human; conditions: oral 5, 10, 25 and 50 mg/day; end-stage renal disease on hemodialysis
Description: Subjects are permitted their usual other medications. […] At each visit, the subjects are assessed for their disease symptoms and biomarkers, and assessed for uremic pruritus. The subjects also maintain health diaries, which are reviewed at each visit.

[7] = test system: IL-31; test: ENHANCE phase 3 study in PBC (NCT03602560): serum IL-31; type: in vivo, human; conditions: 12 weeks, p<0.001
From the text: The trial subjects in this phase 3 study were adult, male or female, with a diagnosis of PBC. Exclusion criteria included AST or ALT≥3×ULN, total bilirubin (TBIL)≥2×ULN, autoimmune hepatitis or a history of chronic viral hepatitis, PSC, the current use of fibrates or simvastatin, the use of colchicine, methotrexate, azathioprine, or systemic steroids in the previous two months, the use of an experimental treatment for PBC, and the use of an experimental or unapproved immunosuppressant. […] Serum IL-31 and its correlation with patient-reported pruritus numerical rating scale (NRS, 0-10) were assessed. Baseline IL-31 levels positively correlated with pruritus NRS; r=0.54, p<0.0001). […] IL-31 compared to subjects with pruritus NRS<4 (7.6 pg/mL [1.2, 14.5] vs 1.2 pg/mL [0.3, 2.8], p<0.0001). At baseline, IL-31 was also correlated with serum total bile acids (r=0.54, p<0.0001) and alkaline phosphatase (ALP) (r=0.44, p<0.0001).

[8] = test system: IL-31 production by CD4 T cells; test: IL-31 production by CD4 T cells under Th2-promoting conditions; type: cell-based, human; conditions: for IL-31 concentration in culture medium, mean: 10 μM seladelpar
Description: CD4 T cells were enriched from peripheral blood mononuclear cells collected from two normal healthy donors, using the EasySep™ Human CD4+ T Cell Isolation Kit ([…] Technologies). 100,000 CD4 T cells were seeded in a U-bottom 96-well-plate well, and cultured in Th2-promoting conditions promoted by IL-4 or IL-33. […] On day 5 of culture, the anti-CD3/CD28 beads were diluted by adding 150 μL TCM. From days 5 to 13, the cells were cultured in the presence of the same reagents as for days 1 to 4 plus 50 ng/ml IL-2; and the cell culture medium was renewed every 2-3 days by a change of 50% volume of the medium. On day 13 or day 14, the expanded T cells in an individual well were split to four to six wells of 96-well-plate wells; and 5 ng/mL phorbol myristate acetate and 500 ng/mL ionomycin were added for 3 days to re-activate the T cells. The IL-31 concentration in the culture medium of each well was determined using the V-PLEX Human IL-31 Kit (Meso Scale Diagnostics, LLC; Rockville, MD, USA).

[9] = Studies of oral seladelpar in PBC; type: in vivo, human
[10] = Example 5: topical seladelpar in uremic pruritus; type: in vivo, human; conditions: topical ointment 1, 2, 5 or 10%; end-stage renal disease on hemodialysis
Description: Subjects are permitted their usual other medications. […] At each visit, the subjects are assessed for their disease symptoms and biomarkers, and assessed for pruritus. The subjects also maintain health diaries, which are reviewed at each visit.

[11] = biological target: T2, PPARy (Homo sapiens, UniProt P37231); conditions: read-out: ECso for PPARy; cited from earlier work
T2 sequence (P37231 1-505): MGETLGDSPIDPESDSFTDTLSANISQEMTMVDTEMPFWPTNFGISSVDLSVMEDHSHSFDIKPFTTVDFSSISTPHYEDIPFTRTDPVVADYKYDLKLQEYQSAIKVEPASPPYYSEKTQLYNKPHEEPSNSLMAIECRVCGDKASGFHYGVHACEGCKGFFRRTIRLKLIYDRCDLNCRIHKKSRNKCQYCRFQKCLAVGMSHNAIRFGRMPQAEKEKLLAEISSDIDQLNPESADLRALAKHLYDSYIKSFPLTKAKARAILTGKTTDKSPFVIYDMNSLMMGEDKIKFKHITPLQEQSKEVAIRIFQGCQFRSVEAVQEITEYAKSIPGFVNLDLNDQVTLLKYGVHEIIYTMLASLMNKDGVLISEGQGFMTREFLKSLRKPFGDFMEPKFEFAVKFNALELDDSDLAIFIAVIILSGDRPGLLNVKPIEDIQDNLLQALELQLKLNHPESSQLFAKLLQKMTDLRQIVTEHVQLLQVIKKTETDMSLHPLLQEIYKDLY

[12] = Example 7: topical mavodelpar in uremic pruritus; type: in vivo, human; conditions: topical ointment 1, 2, 5 or 10%; end-stage renal disease on hemodialysis
Description: Adult subjects with end-stage renal disease on routine hemodialysis are treated topically with an ointment containing 1, 2, 5, or 10% of mavodelpar. Subjects are permitted their usual other medications. The subjects are assessed before the study, and at intervals during the study, such as every 4 weeks during the study and 4 weeks after the last dose of the mavodelpar therapy, for safety and pharmacodynamic evaluations. At each visit, the subjects are assessed for their disease symptoms and biomarkers, and assessed for pruritus. The subjects also maintain health diaries, which are reviewed at each visit.

[13] = biological target: T3, PPARa (Homo sapiens, UniProt Q07869); conditions: read-out: ECso for PPARa; cited from earlier work
T3 sequence (Q07869 1-468): T1 sequence (Q07869 1-468)

[14] = Example 6: oral mavodelpar in uremic pruritus; type: in vivo, human; conditions: oral 5, 10, 25, 50 and 100 mg/day; end-stage renal disease on hemodialysis
Description: Adult subjects with end-stage renal disease on routine hemodialysis are treated orally with doses of 5, 10, 25, 50, and 100 mg/day of mavodelpar. Subjects are permitted their usual other medications. The subjects are assessed before the study, and at intervals during the study, such as every 4 weeks during the study and 4 weeks after the last dose of the mavodelpar therapy, for safety and pharmacodynamic evaluations. At each visit, the subjects are assessed for their disease symptoms and biomarkers, and assessed for uremic pruritus. The subjects also maintain health diaries, which are reviewed at each visit.

O=C(O)c1ccnc(N2CC(O)(c3ccc(OCc4c(-c5c(Cl)cccc5Cl)noc4C4CC4)cc3Cl)C2)c1 [cilofexor]
effect on IL-31 [1]: increased IL-31

CC[C@H]1[C@@H](O)[C@@H]2[C@H](CC[C@]3(C)[C@@H]([C@H](C)CCC(=O)O)CC[C@@H]23)[C@@]2(C)CC[C@@H](O)C[C@@H]12 [obeticholic acid]
mRNA expression in human hepatocytes [2]: increased | patients with severe pruritus ([3]; OCALIVA 10 mg arm): 23% | patients with severe pruritus ([3]; OCALIVA titration arm): 19% | serum IL-31 concentration [4]: 3.7 pg/mL

CCO[C@H](COc1ccc(C(F)(F)F)cc1)CSc1ccc(OCC(=O)O)c(C)c1 [seladelpar, [4-({(2R)-2-ethoxy-3-[4-(trifluoromethyl)phenoxy]propyl}sulfanyl)-2-methylphenoxy]acetic acid]
specificity compared with peroxisome proliferator-activated receptor-α [5]: > 600 fold | uremic pruritus [6]: improvement in their uremic pruritus | mean IL-31 level at end of study ([7]; 5 mg/day oral, from 3.8 pg/mL at baseline): 1.7 pg/mL | mean IL-31 level at end of study ([7]; 10 mg/day oral, from 4.2 pg/mL at baseline): 1.7 pg/mL | IL-31 concentration in culture medium, mean ([8]; Donor 1, IL-4 promoted): 36.00 pg/mL | IL-31 concentration in culture medium, mean ([8]; Donor 1, IL-33 promoted): 10.14 pg/mL | IL-31 concentration in culture medium, mean ([8]; Donor 2, IL-4 promoted): 27.28 pg/mL | IL-31 concentration in culture medium, mean ([8]; Donor 2, IL-33 promoted): 324.05 pg/mL | effect on IL-31 production by CD4 T cells ([8]; both donors, both promoters, p<0.0001 vs DMSO, Mann-Whitney): reduced IL-31 production | serum IL-31 concentration [4]: 0.19 pg/mL | efficacy in PBC ([9]; oral doses of 5, 10, 50 and 200 mg/day): effective in the treatment of PBC | effect on cholestatic pruritus (exacerbation) ([9]; oral doses of 5, 10, 50 and 200 mg/day in PBC): not to exacerbate cholestatic pruritus | efficacy in cholestatic pruritus associated with PBC ([9]; oral doses of 5 and 10 mg/day): effective in the treatment of cholestatic pruritus | effect on IL-31 ([9]; studies in PBC): reduce IL-31 | uremic pruritus [10]: improvement in their uremic pruritus

Cc1cc(OC/C=C(/c2ccc(F)cc2)c2ccc(C#CCN3CCOCC3)cc2)ccc1OCC(=O)O [mavodelpar, (4-{[(2E)-3-(4-fluorophenyl)-3-{4-[3-(morpholin-4-yl)prop-1-yn-1-yl]phenyl}prop-2-en-1-yl]oxy}-2-methylphenoxy)acetic acid]
EC50 [11]: > 10 µM | uremic pruritus [12]: improvement in their uremic pruritus | EC50 [13]: > 10 µM | uremic pruritus [14]: improvement in their uremic pruritus
